The values that follow come from patent publication US8034923B1, “Reagents for reversibly terminating primer extension” (priority 2009, dated 2011).

The nature of data set [1]: Cleavage of 3′-O-aminothymidine 1b with aqueous HONO and no cosolvent. The class given is physicochemical. On the procedure:
(§1) To an aqueous solution of 3′-O-aminothymidine (1b, 20 mM, 2 μL) was added aqueous nitrous acid (350-700 mM NaNO2/1 M NaOAc, 50 μL, pH 5.5-5.75). The resulting pH was measured with a microelectrode (accuracy ca. ±0.02). After 1 or 2 min at room temperature, the reaction was quenched by the addition of K-phosphate buffer (1 M, 200 μL, pH 7), and analyzed by analytical reverse-phase HPLC (Waters NovaPak C-18 4 μm, 3.9×150 mm, with guard column Waters NovaPak C-18 4 μm, 3.9×15 mm, eluent A=25 mM TEAA pH 7, eluent B=acetonitrile, gradient from 3% B to 13% B in 20 min, flow rate=0.5 mL/min, Rt=product: 8 min; starting material: 11 min.). The amount of cleavage was determined by integrating (267 nm) the peaks of the remaining 1b and the product (thymidine). The rates are as follows: As control, the natural nucleosides were treated as follows: An aqueous solution of 2′-deoxyguanosine or 2′-deoxyadenosine or 2′-deoxycytidine (20 mM, 30 μL) was treated with aqueous nitrous acid (700 mM NaNO2, 1 M NaOAc, pH 5.5, 500 μL) at room temperature for 72 h (i.e. 4320 min). An aliquot (50 μL) was removed, neutralized by the addition of K-phosphate buffer (1 M, 200 μL, pH 7), and analyzed by analytical reverse-phase HPLC (Waters NovaPak C-18 4 μm, 3.9×150 mm, with guard column Waters NovaPak C-18 4 μm, 3.9×15 mm. eluent A=25 mM TEAA pH 7, eluent B=acetonitrile, gradient from 0% B to 3% B in 10 min, then to 30% B in 20 min, flow rate=0.5 mL/min, Rt=dG: 14 min, dA: 18 min, dC: 8 min). The amount of decomposition was determined by integrating (260 nm) the peaks of the remaining starting material (nucleoside) and the product(s).

Data set [2] deals with T1, PD-58 (E520G, K540I, L616A) (Thermus aquaticus, UniProt P19821, E520G/K540I/L616A).
T1 construct: made in house; pASK-IBA43plus vector
The data set is described as follows: Primer extension / fidelity test with PD-58. The class given is biochemical. The conditions noted are these: 100 μM, 72° C. On the procedure: To determine whether HONO could cleave the 3′-terminal ONH2 group from a template-bound oligonucleotide and permit subsequent primer extension in a cycle of the type needed for sequencing using cyclic reversible termination, a 5′-biotinylated template that called for incorporation of two consecutive T's opposite the two consecutive template A′ s was used. Streptavidin on magnetic beads was used to recover products. In the first cycle, beads were incubated (72° C., 2 min) with PD-58 polymerase in the presence of T-ONH2 triphosphate (100 μM). Then, the products were treated with buffered sodium nitrite/HONO to cleave the —ONH2 group, generating a free 3′-OH group. […] This was indicated by a slower moving band arising from the reversibly terminated N+1 product.
Gamma-^32P-labeled primer SEQ ID 1 (2.5 pmol), cold primer SEQ ID 1 (22.5 pmol) and template SEQ ID 2 (30 pmol) were annealed by incubation at 95° C. for […] in NEB ThermoPol Reaction Buffer (20 mM Tris-HCl, 10 mM KCl, 10 mM (NH4)2SO4, 2 mM MgSO4, 0.1% TritonX-100) and slowly cooled to room temperature, followed by the addition of Taq cell-free extract (4 μL, the sole source of polymerase). Then, the mixture (final volume 10 μL) was pre-heated to 72° C. (30 sec), and the extension was initiated by adding either reversibly terminated or irreversibly terminated nucleoside triphosphates (final concentration of 100 μM) or both. […]

The test system of data set [3] is 93 Taq polymerase variants from PD library. Kind of data set: Standing start primer-extension assay, PD library screen. The class given is biochemical. The note with it: 100 μM triphosphate, 72° C., 2 min. On the procedure: (§2) Gamma-^32P-labeled primer SEQ ID 1 (2.5 pmol), cold primer SEQ ID 1 (22.5 pmol) and template SEQ ID 2 (30 pmol) were annealed by incubation at 95° C. for […] in NEB ThermoPol Reaction Buffer (20 mM Tris-HCl, 10 mM KCl, 10 mM (NH4)2SO4, 2 mM MgSO4, 0.1% TritonX-100) and slowly cooled to room temperature, followed by the addition of Taq cell-free extract (4 μL, the sole source of polymerase). Then, the mixture (final volume 10 μL) was pre-heated to 72° C. (30 sec), and the extension was initiated by adding either reversibly terminated or irreversibly terminated nucleoside triphosphates (final concentration of 100 μM) or both. After 2 mM, the reaction was quenched by 10 mM EDTA in formamide loading buffer (20 μL) and was resolved on a 14% PAGE (FIGS. 8 and 9).
(§3) 93 Taq polymerase variants from PD library (Table 1) were tested for their ability to incorporate TTP-ONH2. Co-Taq polymerase and the Taq polymerase from New England Biolabs were also tested in parallel as controls. […] Of these variants, eight extended the primer by more than 50% to N+1, performing better than Co-Taq.
To explore the potential of these variant polymerases to incorporate the corresponding 2′-, 3′-dideoxynucleotide, they were challenged with ddTTP (FIG. 9). A total of 27 variant polymerases were able to incorporate ddTTP to a detectable extent, while three of these variants converted more than 50% of the primer to n+1 product.

The target of data set [4] is T2, Taq polymerase from New England Biolabs (Thermus aquaticus, UniProt P19821).
T2 construct: purchased New England Biolabs
Kind of data set: Standing start primer-extension assay. The class given is biochemical. The note with it: 100 μM triphosphate, 72° C., 2 min. On the procedure:
as §2, §3

In data set [5] the target is T3, PD-42 (Taq A597T, L616A, F667Y, E745H) (Thermus aquaticus, UniProt P19821, A597T/E745H/F667Y/L616A).
T3 construct: made in house; pASK-IBA43plus vector
Kind of data set: Primer extension / fidelity test with PD-42. The conditions noted are these: 100 μM, 72° C. The class given is biochemical. As to the method:
as §2
In a 10 μL reaction volume, γ^32P-labeled primer SEQ ID 1([…]), cold primer SEQ ID 1 ([…]) and four kinds of 36 nt long template ([…]) (see above) were annealed respectively by incubation at 95° C. for 5 min and slow cooled to room temperature. 1 (0.25 μg/μL) of PD-42 and 58 (polymerases were purified by Qiagen Ni-NTA Spin Kit) were then added to reactions and incubated at 72° C. for 2 min. Reactions were initiated by the addition of dNTP-ONH2 or ddNTP (Final concentration of 100 μM) (refer to FIG. 13 for specifics) and were resolved on a 14% PAGE.
Two of the 93 variants that performed well with both dTTP-3′-ONH2 and ddTTP were further examined: PD-42 (A597T, L616A, F667Y, E745H) and PD-58 (E520G, K540I, L616A).

Data set [6] in a line: Treatment of natural nucleosides with aqueous nitrous acid (control, decomposition by HPLC). It is filed as physicochemical. The note with it: 700 mM NaNO2, 1 M NaOAc, pH 5.5, room temperature; for oxidation 2 min (extrapolated): extrapolated to 2 min. As to the method:
as §1

In data set [7] the target is Terminal Transferase (TdT) (Bos taurus, UniProt P06526). The data set is described as follows: Tailing of reversible terminators using terminal transferase. The conditions noted are these: 5 μM to 250 μM terminator, 37° C., 1 hour, 8% PAGE. It is filed as biochemical. As to the method:
The oligonucleotide SEQ ID 1 was ^32P-5′ labeled using OptiKinase (USB Corporation). Pyrimidine tailing buffer reactions (20 μL) contained 100 mM cacodylate buffer (pH 7.1), 2 mM CoCl2, 0.1 mM DTT, […] of radiolabeled template (0.5 μM), 10 units of Terminal Transferase (TdT), and varying amounts of reversible terminator from 5 μM to 250 μM. Samples were incubated at 37° C. for 1 hour and were terminated by heating at 70° C. for 10 min. Samples were resolved on 8% PAGE. […] If treated with TdT and a composition of the instant invention, the ssDNA would be derivatized with a 3′-ONH2 group. This could then be captured by an aldehyde affixed to a solid support.

Where [8] appears, read: [HONO] 700 mM, pH 5.50, room temperature.

Where only a bound is given, the exact number is not on record here.

T3 sequence (P19821 whole entry A597T/L616A/F667Y/E745H): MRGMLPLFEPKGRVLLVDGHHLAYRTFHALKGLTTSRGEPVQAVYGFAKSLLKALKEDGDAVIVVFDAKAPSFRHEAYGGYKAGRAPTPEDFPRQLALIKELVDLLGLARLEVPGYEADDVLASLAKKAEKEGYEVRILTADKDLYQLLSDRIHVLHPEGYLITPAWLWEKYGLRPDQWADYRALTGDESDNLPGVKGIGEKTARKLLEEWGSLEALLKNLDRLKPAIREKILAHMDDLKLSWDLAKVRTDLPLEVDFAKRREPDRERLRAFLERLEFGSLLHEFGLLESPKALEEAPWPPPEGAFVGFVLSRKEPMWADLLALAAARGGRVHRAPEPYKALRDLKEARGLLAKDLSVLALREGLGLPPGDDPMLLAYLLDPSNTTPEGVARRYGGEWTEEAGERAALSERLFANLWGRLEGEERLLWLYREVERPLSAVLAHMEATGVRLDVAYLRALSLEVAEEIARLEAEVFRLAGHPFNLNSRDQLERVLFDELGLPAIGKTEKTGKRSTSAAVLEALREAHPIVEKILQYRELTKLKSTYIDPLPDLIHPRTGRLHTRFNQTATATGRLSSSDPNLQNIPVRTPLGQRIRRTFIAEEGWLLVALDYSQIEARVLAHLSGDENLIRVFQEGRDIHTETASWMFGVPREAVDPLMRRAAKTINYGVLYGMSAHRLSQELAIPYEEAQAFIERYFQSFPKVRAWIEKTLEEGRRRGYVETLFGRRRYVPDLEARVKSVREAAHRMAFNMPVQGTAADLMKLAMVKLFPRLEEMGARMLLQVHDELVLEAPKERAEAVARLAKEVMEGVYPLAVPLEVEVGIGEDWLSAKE
T1 sequence (P19821 whole entry E520G/K540I/L616A): as the sequence (P19821 whole entry A597T/L616A/F667Y/E745H) above, with E520G, K540I, T597A, Y667F, H745E counted along it
Chain of Terminal Transferase (TdT) (P06526 whole entry): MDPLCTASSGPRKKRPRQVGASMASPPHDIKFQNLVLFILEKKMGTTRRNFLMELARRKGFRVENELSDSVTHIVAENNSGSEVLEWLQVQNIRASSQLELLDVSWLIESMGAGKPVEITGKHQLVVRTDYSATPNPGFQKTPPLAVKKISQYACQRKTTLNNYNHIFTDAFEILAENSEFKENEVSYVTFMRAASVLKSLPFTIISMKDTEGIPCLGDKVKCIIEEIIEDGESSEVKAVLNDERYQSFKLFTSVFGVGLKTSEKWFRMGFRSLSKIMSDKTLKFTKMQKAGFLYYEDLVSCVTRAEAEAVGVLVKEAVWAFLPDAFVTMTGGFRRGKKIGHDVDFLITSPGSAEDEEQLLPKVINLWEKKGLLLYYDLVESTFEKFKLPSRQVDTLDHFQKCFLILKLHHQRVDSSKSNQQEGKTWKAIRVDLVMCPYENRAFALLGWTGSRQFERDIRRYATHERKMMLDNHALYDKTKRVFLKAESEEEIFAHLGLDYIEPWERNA
T2 sequence (P19821 whole entry): as the sequence (P19821 whole entry A597T/L616A/F667Y/E745H) above, with T597A, A616L, Y667F, H745E counted along it

As to `Cc1cn([C@H]2C[C@H](ON)[C@@H](CO)O2)c(=O)[nH]c1=O` [1b, 3′-O-aminothymidine], the “cleavage 2 min” value in data set [1] ([HONO] 350 mM, pH 5.50, room temperature) is recorded as 90%; in data set [1] (setting [8]) it was more than 99%; in data set [1] ([HONO] 700 mM, pH 5.65, room temperature), 96%. Moreover, the “cleavage 1 min” value in data set [1] (setting [8]) turned out to be 98%.

For `Cc1cn([C@H]2C[C@H](ON)[C@@H](COP(=O)(O)OP(=O)(O)OP(=O)(O)O)O2)c(=O)[nH]c1=O` [TTP-ONH2, 3′-O-Amino-thymidine-5′-triphosphate], in data set [2] (PD library screen), the “incorporation by PD-58” value is reported as “best incorporation”. For the same compound, in data set [2] (template on streptavidin magnetic beads, 2 min), the “primer extension and termination by PD-58” value is listed as “clean N+1 products”. For the same compound, in data set [3], the “number of variant polymerases able to incorporate better than NEB Taq” value is on record as 30, the “number of variants that extended more than 50% of the primer to N+1” value is listed as “eight” and the “share of the PD library mutants able to incorporate better than NEB Taq” value amounted to 32.3%. Also, in data set [4], the “N+1 product on incorporation” value is recorded as “at most a trace of N+1 product”. Moreover, the “incorporation by PD-42” value in data set [5] (PD library screen) was “best incorporation”.

As to `Nc1ncnc2c1ncn2[C@H]1C[C@H](O)[C@@H](CO)O1` [dA, 2′-deoxyadenosine], in data set [6], the “oxidation 72 h” value amounted to 13% and the “oxidation 2 min (extrapolated)” value is <1/10000.

In the case of `NO[C@H]1C[C@H](n2cnc3c(N)ncnc32)O[C@@H]1COP(=O)(O)OP(=O)(O)OP(=O)(O)O` [dATP-ONH2, 3′-O-Amino-2′-deoxyadenosine-5′-triphosphate], the “misincorporation product opposite template A (SEQ ID 3) by PD-42” value in data set [5] (PAGE) is recorded as “trace amounts of products”.

Consider `Nc1ccn([C@H]2C[C@H](O)[C@@H](CO)O2)c(=O)n1` [dC, 2′-deoxycytidine], for which, in data set [6], the “oxidation 72 h” value was determined as 15% and the “oxidation 2 min (extrapolated)” value is given as <1/10000.

As for `NO[C@H]1C[C@H](n2ccc(N)nc2=O)O[C@@H]1COP(=O)(O)OP(=O)(O)OP(=O)(O)O` [dCTP-ONH2, 3′-O-Amino-2′-deoxycytidine-5′-triphosphate], in data set [7], the “primer consumption on TdT tailing” value is “almost all of the primer was remaining”. In addition, in data set [5] (PAGE), the “misincorporation product opposite template dC by PD-42” value is listed as “trace amounts of products”.

Turning to `Nc1nc2c(ncn2[C@H]2C[C@H](O)[C@@H](CO)O2)c(=O)[nH]1` [dG, 2′-deoxyguanosine], in data set [6], the “oxidation 72 h” value was 20% and the “oxidation 2 min (extrapolated)” value is given as <1/10000.

Regarding `NO[C@H]1C[C@H](n2cnc3c(=O)[nH]c(N)nc32)O[C@@H]1COP(=O)(O)OP(=O)(O)OP(=O)(O)O` [dGTP-ONH2, 3′-O-Amino-2′-deoxyguanosine-5′-triphosphate], the “primer consumption on TdT tailing” value in data set [7] was “Almost all of the primer was exhausted”.

As to `Cc1cn([C@H]2CC[C@@H](COP(=O)(O)OP(=O)(O)OP(=O)(O)O)O2)c(=O)[nH]c1=O` [ddTTP, 2′,3′-dideoxythymidine-5′-triphosphate, reference compound], in data set [3], the “number of variant polymerases able to incorporate to a detectable extent” value worked out at 27 and the “number of variants that extended more than 50% of the primer to N+1” value is recorded as “three”.
